Laboratory results published in patent publication US8580747B2, “Cyclic natriuretic peptide constructs” (Palatin Technologies, Inc., priority 2006, dated 2013).
Read-outs that look alike come from different tables or passages of the source. Bridge positions count the residues as written; N and C are the ends. Square brackets hold non-standard residues; d marks the D form. Peptide text beside a SMILES is read from it. * marks the point of attachment. Piperazin2one(3S-Bu,6R-CO) = CCCC[C@@H]1NC[C@H](C(=O)*)NC1=O; X2 = N=C(N)NCCC[C@@H]1C(=O)N[C@@H](C(N)=O)CN1*; X1 = N=C(N)NCCC[C@H]1C(=O)N[C@@H](C(N)=O)CN1*; X3 = CC(C)C[C@@H]1NC[C@H](C(=O)*)NC1=O; dNle = CCCC[C@@H](N)C(=O)O; Nle = CCCC[C@H](N)C(=O)O; Orn = NCCC[C@H](N)C(=O)O

What was measured:
[1] = rat, in vivo, iv
[2] = target: T1, NEP (neutral endopeptidase) (Homo sapiens, UniProt P08473); assay: hNEP resistance assay (digestion by neutral endopeptidase); type: in vitro ADME; conditions: pH 7.4
T1 construct: purchased R&D Systems, Minneapolis, Minn; 1182-ZN
Method: NEP resistance of various constructs of the invention was evaluated using the following experimental procedure. All constructs were diluted in 0.1 M Tris-HCL buffer (pH 7.4) to 100 μM. 40 μL of diluted constructs were added to each tube and all tubes were kept on ice. 40 μL of diluted NEP, either human recombinant NEP (R&D Systems, Minneapolis, Minn., catalogue #1182-ZN) at 8 ng/μL or mouse NEP (R&D Systems, catalog #1126-ZN) at 2.5 ng/μL, was added to each tube. The tubes were mixed gently and spun. […] At the end of the incubation time, the reaction was stopped by adding 5 μL of 10% TFA. […] The extent to which NEP was active against the constructs was then analyzed by HPLC and/or LC/MS. Data analysis included determining the percent of remaining starting material, i.e., undigested peptide construct, and the percent and sequence of each proteolytic fragment.

[3] = human recombinant NEP (neutral endopeptidase), incubation with human recombinant NEP at 37° C., 1 h, read-out: hNEP % of Starting Material 1 h
[4] = human recombinant NEP (neutral endopeptidase), incubation with human recombinant NEP at 37° C., 2 h, read-out: hNEP % of Starting Material 2 h
[5] = human, isolated enzyme neprilysin

T1 sequence (P08473 52-750 limits assumed): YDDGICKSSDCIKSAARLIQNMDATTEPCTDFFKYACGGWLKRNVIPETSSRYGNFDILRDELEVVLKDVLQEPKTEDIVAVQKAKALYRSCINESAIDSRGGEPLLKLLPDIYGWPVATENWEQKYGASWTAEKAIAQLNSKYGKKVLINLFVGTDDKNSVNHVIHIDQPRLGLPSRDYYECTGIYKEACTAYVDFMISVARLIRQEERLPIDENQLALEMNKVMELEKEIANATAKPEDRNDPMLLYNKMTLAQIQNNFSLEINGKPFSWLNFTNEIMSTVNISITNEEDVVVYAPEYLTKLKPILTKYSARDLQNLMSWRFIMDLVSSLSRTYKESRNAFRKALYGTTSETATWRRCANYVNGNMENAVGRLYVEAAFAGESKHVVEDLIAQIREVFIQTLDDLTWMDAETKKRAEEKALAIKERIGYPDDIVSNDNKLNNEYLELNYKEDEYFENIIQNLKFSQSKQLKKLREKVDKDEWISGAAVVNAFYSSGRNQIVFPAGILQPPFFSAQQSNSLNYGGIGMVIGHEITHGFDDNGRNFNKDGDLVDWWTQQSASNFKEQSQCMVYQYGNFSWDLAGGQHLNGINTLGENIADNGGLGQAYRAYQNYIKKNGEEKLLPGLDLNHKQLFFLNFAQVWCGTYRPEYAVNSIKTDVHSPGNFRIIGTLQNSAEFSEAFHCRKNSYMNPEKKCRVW

AUC ([1]; 2 mg/kg) [µM·h] | Vd ([1]; 2 mg/kg) [L/kg] | clearance ([1]; 2 mg/kg) [mL/min/kg] | half-life ([1]; 2 mg/kg) [min] | remaining at 1 h, 50 µM [2, 3] [%] | remaining at 2 h, 50 µM [2, 4] [%] | clearance [1] [mL/min/kg] | remaining at 1 h, 50 µM [2, 5] [%] | remaining at 2 h, 50 µM [2, 5] [%] | SMILES
0.01 | 57 | 1860 | 24 | – | – | – | – | – | CCCC[C@@H]1NC[C@H](C(=O)N[C@H]2CSSC[C@@H](C(=O)N[C@@H](Cc3ccc(O)cc3)C(=O)N3C[C@H](C(N)=O)NC(=O)[C@@H]3CCCNC(=N)N)NC(=O)[C@H](CO)NC(=O)[C@H]([C@@H](C)CC)NC(=O)[C@H](CCCNC(=N)N)NC(=O)[C@H](C)NC(=O)[C@H](CCCC)NC(=O)[C@H](CCCNC(=N)N)NC(=O)CNC(=O)CNC(=O)[C@H](Cc3ccccc3)NC(=O)[C@H](Cc3c[nH]cn3)NC2=O)NC1=O [1-35]
0.277 | 1 | 66 | 12 | 85 | 82 | 66 | – | – | CCCC[C@@H]1NC[C@H](C(=O)N[C@H]2CSSC[C@@H](C(=O)N[C@@H](Cc3ccc(O)cc3)C(=O)N3C[C@H](C(N)=O)NC(=O)[C@@H]3CCCNC(=N)N)NC(=O)[C@H](CO)NC(=O)[C@H]([C@@H](C)CC)NC(=O)[C@H](CCCNC(=N)N)NC(=O)[C@H](CC(=O)O)NC(=O)[C@H](CCCC)NC(=O)[C@H](CCCN)NC(=O)CNC(=O)CNC(=O)[C@H](Cc3ccccc3)NC(=O)[C@H](Cc3c[nH]cn3)NC2=O)NC1=O [1-54] ({Piperazin2one(3S-Bu,6R-CO)}-CHFGG[Orn][Nle]DRISCY-X1; disulfide 1-12)
– | – | – | – | 96 | 93 | 12 | – | – | CCCC[C@@H]1NC[C@H](C(=O)N[C@H]2CSSC[C@@H](C(=O)N[C@@H](Cc3ccc(O)cc3)C(=O)N3C[C@H](C(N)=O)NC(=O)[C@H]3CCCNC(=N)N)NC(=O)[C@H](CO)NC(=O)[C@H]([C@@H](C)CC)NC(=O)[C@H](CCCNC(=N)N)NC(=O)[C@H](CC(=O)O)NC(=O)[C@@H](CCCC)NC(=O)[C@H](CCCNC(=N)N)NC(=O)CNC(=O)[C@@H](C)NC(=O)[C@H](Cc3ccccc3)NC(=O)[C@H](Cc3c[nH]cn3)NC2=O)NC1=O [1-133] ({Piperazin2one(3S-Bu,6R-CO)}-CHF[dA]GR[dNle]DRISCY-X2; disulfide 1-12)
– | – | – | – | – | – | 40 | 87 | 78 | CCCC[C@@H]1NC[C@H](C(=O)N[C@H]2CSSC[C@@H](C(=O)N[C@H](Cc3ccc(O)cc3)C(=O)N3C[C@H](C(N)=O)NC(=O)[C@@H]3CCCNC(=N)N)NC(=O)[C@H](CO)NC(=O)[C@H]([C@@H](C)CC)NC(=O)[C@H](CCCNC(=N)N)NC(=O)[C@H](CC(=O)O)NC(=O)[C@H](CCCC)NC(=O)[C@H](CCCNC(=N)N)NC(=O)CNC(=O)CNC(=O)[C@H](Cc3ccccc3)NC(=O)[C@H](Cc3c[nH]cn3)NC2=O)NC1=O [1-53] ({Piperazin2one(3S-Bu,6R-CO)}-CHFGGR[Nle]DRISC[dY]-X1; disulfide 1-12)
0.113 | 0.8 | 168 | 6 | – | – | – | – | – | CCCC[C@@H]1NC[C@H](C(=O)N[C@H]2CSSC[C@@H](C(=O)N[C@@H](Cc3ccc(O)cc3)C(=O)N3C[C@H](C(N)=O)NC(=O)[C@@H]3CCCNC(=N)N)NC(=O)[C@H](C)NC(=O)[C@H]([C@@H](C)CC)NC(=O)[C@H](CCCNC(=N)N)NC(=O)[C@H](CC(=O)O)NC(=O)[C@H](CCCC)NC(=O)[C@H](CCCNC(=N)N)NC(=O)CNC(=O)CNC(=O)[C@H](Cc3ccccc3)NC(=O)[C@H](C)NC2=O)NC1=O [1-69] ({Piperazin2one(3S-Bu,6R-CO)}-CAFGGR[Nle]DRIACY-X1; disulfide 1-12)
1.25 | 0.6 | 14 | 42 | – | – | 14 | 97 | 92 | CCCC[C@@H]1NC[C@H](C(=O)N[C@H]2CSSC[C@@H](C(=O)N[C@@H](Cc3ccc(O)cc3)C(=O)N3C[C@H](C(N)=O)NC(=O)[C@@H]3CCCNC(=N)N)NC(=O)[C@H](CO)NC(=O)[C@H]([C@@H](C)CC)NC(=O)[C@H](CCCNC(=N)N)NC(=O)[C@H](CC(=O)O)NC(=O)[C@@H](CCCC)NC(=O)[C@H](CCCNC(=N)N)NC(=O)CNC(=O)CNC(=O)[C@H](Cc3ccccc3)NC(=O)[C@H](Cc3c[nH]cn3)NC2=O)NC1=O [1-43] ({Piperazin2one(3S-Bu,6R-CO)}-CHFGGR[dNle]DRISCY-X1; disulfide 1-12)
– | – | – | – | – | – | 10 | 96 | 92 | CCCC[C@@H]1NC[C@H](C(=O)N[C@H]2CSSC[C@@H](C(=O)N[C@@H](Cc3ccc(O)cc3)C(=O)N3C[C@H](C(N)=O)NC(=O)[C@H]3CCCNC(=N)N)NC(=O)[C@H](CO)NC(=O)[C@H]([C@@H](C)CC)NC(=O)[C@@H](CCCNC(=N)N)NC(=O)[C@H](CC(=O)O)NC(=O)[C@H](CCCC)NC(=O)[C@@H](CCCNC(=N)N)NC(=O)CNC(=O)CNC(=O)[C@H](Cc3ccccc3)NC(=O)[C@H](Cc3c[nH]cn3)NC2=O)NC1=O [1-118] ({Piperazin2one(3S-Bu,6R-CO)}-CHFGG[dR][Nle]D[dR]ISCY-X2; disulfide 1-12)
0.85 | 0.3 | 23 | 18 | – | – | – | – | – | CCCC[C@@H]1NC[C@H](C(=O)N[C@H]2CSSC[C@@H](C(=O)N[C@@H](Cc3ccc(O)cc3)C(=O)N3C[C@H](C(N)=O)NC(=O)[C@@H]3CCCNC(=N)N)NC(=O)[C@H](CO)NC(=O)[C@H]([C@@H](C)CC)NC(=O)[C@@H](CCCNC(=N)N)NC(=O)[C@H](CC(=O)O)NC(=O)[C@H](CCCC)NC(=O)[C@H](CCCNC(=N)N)NC(=O)CNC(=O)CNC(=O)[C@H](Cc3ccccc3)NC(=O)[C@H](Cc3c[nH]cn3)NC2=O)NC1=O [1-45] ({Piperazin2one(3S-Bu,6R-CO)}-CHFGGR[Nle]D[dR]ISCY-X1; disulfide 1-12)
0.369 | 0.7 | 50 | 18 | – | – | – | – | – | CCCC[C@@H]1NC[C@H](C(=O)N[C@H]2CSSC[C@@H](C(=O)N[C@@H](Cc3ccc(O)cc3)C(=O)N3C[C@H](C(N)=O)NC(=O)[C@@H]3CCCNC(=N)N)NC(=O)[C@H](CO)NC(=O)[C@H]([C@@H](C)CC)NC(=O)[C@H](CCCNC(=N)N)NC(=O)[C@H](CC(=O)O)NC(=O)[C@H](CCCC)NC(=O)[C@@H](CCCNC(=N)N)NC(=O)CNC(=O)CNC(=O)[C@H](Cc3ccccc3)NC(=O)[C@H](Cc3c[nH]cn3)NC2=O)NC1=O [1-42] ({Piperazin2one(3S-Bu,6R-CO)}-CHFGG[dR][Nle]DRISCY-X1; disulfide 1-12)
0.478 | 0.5 | 40 | 18 | – | – | – | – | – | CCCC[C@@H]1NC[C@H](C(=O)N[C@H]2CSSC[C@@H](C(=O)N[C@@H](Cc3ccc(O)cc3)C(=O)N3C[C@H](C(N)=O)NC(=O)[C@@H]3CCCNC(=N)N)NC(=O)[C@H](CO)NC(=O)[C@H]([C@@H](C)CC)NC(=O)[C@H](CCCNC(=N)N)NC(=O)[C@H](CC(=O)O)NC(=O)[C@H](CCCC)NC(=O)[C@H](CCCNC(=N)N)NC(=O)CNC(=O)[C@@H](C)NC(=O)[C@H](Cc3ccccc3)NC(=O)[C@H](Cc3c[nH]cn3)NC2=O)NC1=O [1-68]
0.351 | 1.1 | 51 | 24 | – | – | – | – | – | CCCC[C@@H]1NC[C@H](C(=O)N[C@H]2CSSC[C@@H](C(=O)N[C@@H](Cc3ccc(O)cc3)C(=O)N3C[C@H](C(N)=O)NC(=O)[C@@H]3CCCNC(=N)N)NC(=O)[C@H](CO)NC(=O)[C@H]([C@@H](C)CC)NC(=O)[C@H](CCCNC(=N)N)NC(=O)[C@H](CC(=O)O)NC(=O)[C@H](CCCC)NC(=O)[C@H](CCCNC(=N)N)NC(=O)CNC(=O)CNC(=O)[C@H](Cc3ccccc3)NC(=O)[C@@H](Cc3c[nH]cn3)NC2=O)NC1=O [1-28] ({Piperazin2one(3S-Bu,6R-CO)}-C[dH]FGGR[Nle]DRISCY-X1; disulfide 1-12)
0.142 | 2.8 | 134 | 18 | – | – | – | – | – | CCCC[C@@H]1NC[C@H](C(=O)N[C@H]2CSSC[C@@H](C(=O)N[C@@H](Cc3ccc(O)cc3)C(=O)N3C[C@H](C(N)=O)NC(=O)[C@@H]3CCCNC(=N)N)NC(=O)[C@H](CO)NC(=O)[C@H]([C@@H](C)CC)NC(=O)[C@H](CCCNC(=N)N)NC(=O)[C@H](CC(=O)O)NC(=O)[C@H](CCCC)NC(=O)[C@H](CCCNC(=N)N)NC(=O)CNC(=O)CNC(=O)[C@@H](Cc3ccccc3)NC(=O)[C@H](Cc3c[nH]cn3)NC2=O)NC1=O [1-39] ({Piperazin2one(3S-Bu,6R-CO)}-CH[dF]GGR[Nle]DRISCY-X1; disulfide 1-12)
0.19 | 1 | 94 | 12 | – | – | – | – | – | CCCC[C@@H]1NC(=O)[C@H](CCCNC(=N)N)NC(=O)CNC(=O)CNC(=O)[C@H](Cc2ccccc2)NC(=O)[C@H](Cc2c[nH]cn2)NC(=O)[C@@H](NC(=O)[C@H]2CN[C@@H](CC(C)C)C(=O)N2)CSSC[C@@H](C(=O)N[C@@H](Cc2ccc(O)cc2)C(=O)N2C[C@H](C(N)=O)NC(=O)[C@@H]2CCCNC(=N)N)NC(=O)[C@H](CO)NC(=O)[C@H]([C@@H](C)CC)NC(=O)[C@H](CCCNC(=N)N)NC(=O)[C@H](CC(=O)O)NC1=O [1-51] (X3-CHFGGR[Nle]DRISCY-X1; disulfide 1-12)
